From patent US7807703B2, “Substituted aryl ketones” (Bayer CropScience AG, priority 2002, dated 2010)

assay: log P determination by reversed-phase HPLC (EEC Directive 79/831 Annex V.A8; acidic or neutral mobile phase); assay type: physicochemical; details: HPLC, reversed-phase C18, 43° C.; acidic range a): 0.1% aqueous phosphoric acid, acetonitrile, linear gradient 10% to 90% acetonitrile
Experimental: The log P values given in the table were determined in accordance with EEC Directive 79/831 Annex V.A8 by HPLC (High Performance Liquid Chromatography) using a reversed-phase column (C 18). Temperature: 43° C.
(a) Mobile phases for the determination in the acidic range: 0.1% aqueous phosphoric acid, acetonitrile; linear gradient from 10% acetonitrile to 90% acetonitrile—the corresponding measurement results are marked a) in Table 1.
(b) Mobile phases for the determination in the neutral range: 0.01 molar aqueous phosphate buffer solution, acetonitrile; linear gradient from 10% acetonitrile to 90% acetonitrile—the corresponding measurement results are marked b) in Table 1.

With `CCn1ncc(C(=O)c2ccc(S(C)(=O)=O)c(CN(OC(C)C)C(C)C)c2Cl)c1O` [Example 421] as the compound, how does the logP read?
Its logP is “logP = 3.25^a)”.

With `CCn1ncc(C(=O)c2ccc(S(C)(=O)=O)c(CNOC3CCCC3)c2Cl)c1O` [Example 422] as the compound, how does the logP read?
The logP was “(I-2) logP = 2.31^a)”.

Which logP does the source give for `CCn1ncc(C(=O)c2ccc(S(C)(=O)=O)c(CN(CC3CCOC3)OC)c2Cl)c1O` (stereo not shown) [Example 423] here?
The logP was “(I-2) logP = 1.97^a)”.

Which logP does the source give for `CCON(C)Cc1c(S(C)(=O)=O)ccc(C(=O)C2C(=O)CCCC2=O)c1Cl` [Example 424] here?
Its logP is “logP = 2.82^a)”.

With `CCON(C)Cc1c(S(C)(=O)=O)ccc(C(=O)C2C(=O)CCC(C)(C)C2=O)c1Cl` (stereo not shown) [Example 425] as the compound, how does the logP read?
Its logP is “(I-2) logP = 3.65^a)”.

Which logP does the source give for `CS(=O)(=O)c1ccc(C(=O)C2C(=O)CCCC2=O)c(Cl)c1CN(CC1CCOC1)OC1CCCC1` (stereo not shown) [Example 426] here?
Its logP is “(I-2) logP = 3.53^a)”.

For `CCON(Cc1c(S(C)(=O)=O)ccc(C(=O)c2cnn(C)c2O)c1Cl)CC1CCOC1` (stereo not shown) [Example 427], which logP is on record?
The logP was “(I-2) logP = 1.90^a)”.

Which logP does the source give for `CON(Cc1ccoc1)Cc1c(S(C)(=O)=O)ccc(C(=O)C2C(=O)CCCC2=O)c1Cl` [Example 428] here?
The logP was “(I-2) logP = 3.10^a)”.

For `COCCON(C)Cc1c(S(C)(=O)=O)ccc(C(=O)C2C(=O)CCCC2=O)c1Cl` [Example 429], which logP is on record?
The logP was “(I-2) logP = 2.43^a)”.

For `CCn1ncc(C(=O)c2ccc(S(C)(=O)=O)c(CN(C)OCCOC)c2Cl)c1O` [Example 431], which logP is on record?
Its logP is “(I-2) logP = 1.80^a)”.

For `COCCON(C)Cc1c(S(C)(=O)=O)ccc(C(=O)C2C(=O)CCC(C)(C)C2=O)c1Cl` (stereo not shown) [Example 432], which logP is on record?
Its logP is “(I-2) logP = 3.22^a)”.

With `COCCON(C)Cc1c(S(C)(=O)=O)ccc(C(=O)c2cnn(C)c2O)c1Cl` [Example 433] as the compound, how does the logP read?
The logP was “(I-2) logP = 1.51^a)”.

With `CN(Cc1c(S(C)(=O)=O)ccc(C(=O)C2C(=O)CCCC2=O)c1Cl)OCC1CCOC1` (stereo not shown) [Example 434] as the compound, how does the logP read?
The logP was “(I-2) logP = 2.67^a)”.

For `CCn1ncc(C(=O)c2ccc(S(C)(=O)=O)c(CN(C)OCC3CCOC3)c2Cl)c1O` (stereo not shown) [Example 435], which logP is on record?
Its logP is “(I-2) logP = 2.03^a)”.

With `CN(Cc1c(S(C)(=O)=O)ccc(C(=O)C2C(=O)CCC(C)(C)C2=O)c1Cl)OCC1CCOC1` (stereo not shown) [Example 436] as the compound, how does the logP read?
The logP was “(I-2) logP = 3.49^a)”.

Which logP does the source give for `CN(Cc1c(S(C)(=O)=O)ccc(C(=O)c2cnn(C)c2O)c1Cl)OCC1CCOC1` (stereo not shown) [Example 437] here?
Its logP is “(I-2) logP = 1.73^a)”.

With `CN(Cc1c(S(C)(=O)=O)ccc(C(=O)C2C(=O)CCCC2=O)c1Cl)OCC1CCCCO1` (stereo not shown) [Example 438] as the compound, how does the logP read?
Its logP is “(I-2) logP = 3.04^a)”.

With `CCn1ncc(C(=O)c2ccc(S(C)(=O)=O)c(CN(C)OCC3CCCCO3)c2Cl)c1O` (stereo not shown) [Example 439] as the compound, how does the logP read?
Its logP is “(I-2) logP = 2.35^a)”.

Which logP does the source give for `CN(Cc1c(S(C)(=O)=O)ccc(C(=O)c2cnn(C)c2O)c1Cl)OCC1CCCCO1` (stereo not shown) [Example 440] here?
Its logP is “(I-2) logP = 2.01^a)”.

With `CCn1ncc(C(=O)c2ccc(S(C)(=O)=O)c(CN(Cc3ccoc3)OC)c2Cl)c1O` [Example 441] as the compound, how does the logP read?
The logP was “(I-2) logP = 2.39^a)”.

With `CS(=O)(=O)c1ccc(C(=O)C2C(=O)CCCC2=O)c(Cl)c1CNOCCOc1ccccc1` [Example 442] as the compound, how does the logP read?
The logP was “(I-2) logP = 3.07^a)”.

With `CCn1ncc(C(=O)c2ccc(S(C)(=O)=O)c(CN(C)OCC3CC3)c2Cl)c1O` [Example 443] as the compound, how does the logP read?
Its logP is “(I-2) logP = 2.41^a)”.

With `CN(Cc1c(S(C)(=O)=O)ccc(C(=O)C2C(=O)CCCC2=O)c1Cl)OCC1CC1` [Example 444] as the compound, how does the logP read?
Its logP is “(I-2) logP = 3.14^a)”.

With `CCn1ncc(C(=O)c2ccc(S(C)(=O)=O)c(CN(C)OCC3CC3)c2Cl)c1O` [Example 445] as the compound, how does the logP read?
The logP was “(I-2) logP = 2.05^a)”.

With `CCON(Cc1c(S(C)(=O)=O)ccc(C(=O)C2C(=O)CCC(C)(C)C2=O)c1Cl)CC1CCOC1` (stereo not shown) [Example 446] as the compound, how does the logP read?
Its logP is “(I-2) logP = 3.60^a)”.

Which logP does the source give for `CCONCc1c(Cl)ccc(C(=O)C2C(=O)CCCC2=O)c1OC` [Example 447] here?
Its logP is “logP = 2.20^a)”.

For `CCONCc1c(Cl)ccc(C(=O)c2cnn(CC)c2O)c1OC` [Example 448], which logP is on record?
Its logP is “logP = 3.60^a)”.

Which logP does the source give for `CCONCc1c(Cl)ccc(C(=O)C2C(=O)CCC(C)(C)C2=O)c1Cl` (stereo not shown) [Example 449] here?
The logP was “(I-2) logP = 3.64^a)”.

Which logP does the source give for `CCONCc1c(Cl)ccc(C(=O)c2cnn(C)c2O)c1Cl` [Example 450] here?
The logP was “logP = 1.67^a)”.

For `CCON(CC)Cc1c(S(C)(=O)=O)ccc(C(=O)c2cnn(CC)c2O)c1Cl` [Example 451], which logP is on record?
Its logP is “logP = 2.44^a)”.

Which logP does the source give for `CCn1ncc(C(=O)c2ccc(S(C)(=O)=O)c(CN(C)S(C)(=O)=O)c2Cl)c1O` [Example 452] here?
Its logP is “logP = 1.25^a)”.

For `CN(Cc1c(S(C)(=O)=O)ccc(C(=O)c2cnn(C)c2O)c1Cl)S(C)(=O)=O` [Example 453], which logP is on record?
The logP was “logP = 0.99^a)”.

Which logP does the source give for `CN(Cc1c(S(C)(=O)=O)ccc(C(=O)C2C(=O)CCCC2=O)c1Cl)S(C)(=O)=O` [Example 454] here?
Its logP is “logP = 1.84^a)”.

For `CN(Cc1c(S(C)(=O)=O)ccc(C(=O)C2C(=O)CCC(C)(C)C2=O)c1Cl)S(C)(=O)=O` (stereo not shown) [Example 455], which logP is on record?
Its logP is “(I-2) logP = 2.43^a)”.

Which logP does the source give for `CCn1ncc(C(=O)c2ccc(Cl)c(CN(C)S(C)(=O)=O)c2Cl)c1O` [Example 456] here?
Its logP is “logP = 1.72^a)”.

For `CN(Cc1c(Cl)ccc(C(=O)c2cnn(C)c2O)c1Cl)S(C)(=O)=O` [Example 457], which logP is on record?
Its logP is “logP = 1.44^a)”.

Which logP does the source give for `CN(Cc1c(Cl)ccc(C(=O)C2C(=O)CCCC2=O)c1Cl)S(C)(=O)=O` [Example 458] here?
Its logP is “logP = 2.32^a)”.

With `CN(Cc1c(Cl)ccc(C(=O)C2C(=O)CCC(C)(C)C2=O)c1Cl)S(C)(=O)=O` (stereo not shown) [Example 459] as the compound, how does the logP read?
The logP was “(I-2) logP = 3.01^a)”.

For `C=CCN(Cc1c(S(C)(=O)=O)ccc(C(=O)C2C(=O)CCCC2=O)c1Cl)S(C)(=O)=O` [Example 460], which logP is on record?
Its logP is “logP = 2.17^a)”.

With `C=CCN(Cc1c(S(C)(=O)=O)ccc(C(=O)c2cnn(CC)c2O)c1Cl)S(C)(=O)=O` [Example 461] as the compound, how does the logP read?
Its logP is “logP = 1.63^a)”.

For `CCN(Cc1c(Cl)ccc(C(=O)c2cnn(CC)c2O)c1OC)S(C)(=O)=O` [Example 462], which logP is on record?
The logP was “logP = 2.12^a)”.

For `CCN(Cc1c(Cl)ccc(C(=O)c2cnn(C)c2O)c1OC)S(C)(=O)=O` [Example 463], which logP is on record?
The logP was “logP = 1.80^a)”.

Which logP does the source give for `CCN(Cc1c(Cl)ccc(C(=O)C2C(=O)CCCC2=O)c1OC)S(C)(=O)=O` [Example 464] here?
Its logP is “logP = 2.47^a)”.

Which logP does the source give for `CCN(Cc1c(Cl)ccc(C(=O)C2C(=O)CCC(C)(C)C2=O)c1OC)S(C)(=O)=O` (stereo not shown) [Example 465] here?
The logP was “(I-2) logP = 3.21^a)”.

With `CCN(Cc1c(S(C)(=O)=O)ccc(C(=O)C2C(=O)CCC(C)(C)C2=O)c1Cl)S(C)(=O)=O` (stereo not shown) [Example 466] as the compound, how does the logP read?
The logP was “(I-2) logP = 2.64^a)”.

With `CCN(Cc1c(S(C)(=O)=O)ccc(C(=O)C2C(=O)CCCC2=O)c1Cl)S(C)(=O)=O` [Example 467] as the compound, how does the logP read?
Its logP is “logP = 2.02^a)”.

For `CCN(Cc1c(S(C)(=O)=O)ccc(C(=O)c2cnn(CC)c2O)c1Cl)S(C)(=O)=O` [Example 468], which logP is on record?
The logP was “logP = 1.48^a)”.

Which logP does the source give for `CCN(Cc1c(S(C)(=O)=O)ccc(C(=O)c2cnn(C)c2O)c1Cl)S(C)(=O)=O` [Example 469] here?
The logP was “logP = 1.22^a)”.

Which logP does the source give for `CCn1ncc(C(=O)c2ccc(Cl)c(CN(C)S(C)(=O)=O)c2OC)c1O` [Example 470] here?
The logP was “logP = 1.86^a)”.

For `COc1c(C(=O)c2cnn(C)c2O)ccc(Cl)c1CN(C)S(C)(=O)=O` [Example 471], which logP is on record?
Its logP is “logP = 1.55^a)”.

With `COc1c(C(=O)C2C(=O)CCCC2=O)ccc(Cl)c1CN(C)S(C)(=O)=O` [Example 472] as the compound, how does the logP read?
Its logP is “logP = 2.20^a)”.

Which logP does the source give for `COc1c(C(=O)C2C(=O)CCC(C)(C)C2=O)ccc(Cl)c1CN(C)S(C)(=O)=O` (stereo not shown) [Example 473] here?
Its logP is “(I-2) logP = 2.92^a)”.
